Assay results published in patent EP2444396A1, “PHOTOPROTECTIVE COMPOSITION” (Apoteknos Para La Piel, S.L., priority 2009, dated 2010).
“And” between values parts separate entries of the source, which are not always exact repeats. Equal values may be shown once. Marks after values point to notes of the source that are not given here.

Assays:
[1] = Photostability evaluation (irradiation in MeOH, TLC analysis); assay type: physicochemical; conditions: MeOH, irradiated for 2 hours, 450W lamp; approximate estimation of the total sum of photoproducts
Protocol: All the irradiations preformed in the photostability studies were carried out in an ACE 7840 photoreactor using a 450W power ACE 7825 lamp.
The solvent used in the photostability test was methanol [MeOH] (ppa) (250 mL), using a concentration of […] of p-nitrolophine. The solution was irradiated for 2 hours, samples being taken at 10 minutes, 20 minutes, 1 hour and 2 hours, and being dried in a rotating evaporator. Each sample was analyzed by thin layer chromatography (TLC in Silica gel) using petroleum ether:ethyl acetate (4:1) as eluent. The chromatography plates were viewed under a 254 nm lamp and a 366 nm lamp, as well as by means of simultaneous viewing under both lamps (254 and 366 nm).
Specifically, three photoproducts (three blots) could be determined, which were isolated by preparative TLC.
A saturated solution of m-nitrolophine in MeOH was prepared to perform the study since the solubility in this solvent is low (approximately 0.2 mg/mL). Briefly, an amount of m-nitrolophine sufficient to ensure the saturation in 200 mL of MeOH throughout the night was left stirring. The solution was filtered and irradiated for 2 hours, samples of 10 mL being taken at 10 minutes, 20 minutes, 1 hour and 2 hours, and being dried in rotating evaporator. […]

[2] = tested on: inflammation induced by phorbol 12-myristate-13-acetate (PMA); assay: Topical anti-inflammatory activity: ear inflammation induced by PMA in mice; assay type: in vivo; set-up: RE / RE Average: unit not given here; conditions: for LE Average: left ear (non treated); for LE Average / RE Average: group average; for RE Average: right ear (treated); for LE: weight of 6 mm portion of left ear (non treated); for LE / RE: individual mice; for RE: weight of 6 mm portion of right ear (treated)
Protocol: The topical anti-inflammatory activity of p-nitrolophine has been analyzed in this study since erythema is a inflammatory process. Specifically, the inhibition of inflammation induced by phorbol 12-myristate-13-acetate (PMA) was evaluated and compared with an anti-inflammatory product of reference (indometacin). 37 mice were divided into the following groups: positive control group (PMA 0.5 mg); negative control group (indometacin 0.5 mg); treated groups (0.5 mg and 1 mg of p-nitrolophine). All the solutions were prepared using acetone (ppa) as vehicle. 20 µL of solution of 25 mg/mL of phorbol 12-myristate-13-acetate (PMA) [Fluka cod 79346] (10 µL in each face) was administered in the right ear of each mouse. Immediately after administering the PMA, nothing more was administered into the positive control group; 20 µL of the solution of 25 mg/mL of indometacin was administered to the negative control group, and 20 µL of the solution of 25 or 50 mg/mL of 4-nitrolophine was administered in the same manner to the treated groups. Animals having no lesions or skin and ear irritation were used.
After 4 hours of post-treatment, the mice were sacrificed through cervical fracture and a portion of 6 mm in diameter was obtained from each ear with a hollow punch which was weight in precision analytical balance. The difference in weight (Δ) between the right ear (treated) and the left ear (non treated) for each animal and for each group were calculated. The percentage of inhibition (% inh) was estimated and calculated according to the following equation: % inh = 100(1-Δt/Δc) [formula] wherein Δt represents the difference in the treated groups and Δc the difference for the […].
In order to analyze the results, an one way ANOVA and Dunnet test for multiple comparison was used, values of P<0.05 were considered significant. A software, Graphpad Instat Version 3.06, was used for such purposes.

[3] = Specific molar absorptivity of p-nitrolophine in MeOH at 379 nm; assay type: physicochemical
Protocol: As a preliminary step, in the case of p-nitrolophine the specific molar absorptivity of the molecule (ε) (A^11) was determined. To that end, 50.4 mg of p-nitrolophine were weight, they were dissolved in 100.0 mL of MeOH (ppa); 4 dilutions were then performed by taking 1.0, 2.0, 5.0 and 10.0 mL from this mother liquor and topping up each of them to a volume of 100.0 ml with MeOH (ppa). […]
The slope of the straight line obtained from these points (Y= 16.717x + 0.03; R2 = 0.9993) therefore coincides with the value of specific molar absorptivity of p-nitrolophine at 379 nm ε(379nm) = 16.717 A.U.L/mol [formula]

[4] = UV spectrum: wavelengths of maximum absorption and absorbance (Cecil 2021 UV-Visible Spectrophotometer); assay type: physicochemical

degradation [1]: lower than 5% | specific molar absorptivity ε(379nm) ([3]; 379 nm, slope of the straight line): 16.717 A.U.L/mol | Abs. at 379 nm (A.U.) ([3]; Concentration (mol) 0.0000147): 0.2572 A.U. | Abs. at 379 nm (A.U.) ([3]; Concentration (mol) 0.00002953): 0.5214 A.U. | Abs. at 379 nm (A.U.) ([3]; Concentration (mol) 0.00007382): 1.301 A.U. | Abs. at 379 nm (A.U.) ([3]; Concentration (mol) 0.00014764): 2.4819 A.U. | UV spectrum A (a.u) ([4]; absorbance at the maximum of the same line): 0.715 a.u and 0.669 a.u and 0.774 a.u | UV spectrum λ (nm) ([4]; wavelengths of the maximum absorption): 221.0 nm and 255.0 nm and 379.0 nm
SMILES: O=[N+]([O-])c1ccc(-c2nc(-c3ccccc3)c(-c3ccccc3)[nH]2)cc1 [p-nitrolophine, 2-(4-nitrophenyl)-4,5-diphenyl-1H-imidazole]
% inhibition ([2]; 4 hours): 100** (q = 9.5) % | Average (Δ = RE - LE) ([2]; Dose (mg/ear) 0.5, 4 hours): -0.13 | % inhibition ([2]; Dose (mg/ear) 1, n=4, tendency, not statistically compared): ~90% | Average (Δ = RE - LE) ([2]; Dose (mg/ear) 1, n=4, 4 hours): 0.52 | LE Average ([2]; 0.5 mg group, 4 hours): 6.7 | LE Average ([2]; 1 mg group, 4 hours): 5.9 | RE Average ([2]; 0.5 mg, 4 hours): 6.6 | RE Average ([2]; 1 mg, 4 hours): 6.4 | LE ([2]; 0.5 mg group, 4 hours, listed as 4-nitrolophine): 9.9 and 7.5 (2×) and 6.2 (2×) and 6.4 and 6.7 (2×) and 5.6 and 5.2 and 5.9 and 7.8 and 6 | LE ([2]; 1 mg group, 4 hours, listed as 4-Nitrolophine): 5.6 and 5.8 and 5,5 and 6.6 | RE ([2]; 0.5 mg, 4 hours, listed as 4-nitrolophine): 7.3 and 7 and 5.9 (2×) and 5.6 and 6.6 (2×) and 7.2 and 7.8 and 6.5 and 6 and 7.7 and 5.8 | RE ([2]; 1 mg, 4 hours, listed as 4-Nitrolophine): 5.9 and 7.3 and 6.2 (2×)
